Data reported in the NIST ThermoML archive (doi:10.1021/je050414d).
“And” between values parts separate entries of the source, which are not always exact repeats. Identical values can stand only once. ± gives the expanded uncertainty stated by the source.

Columns and labels:
[1] = 101 kPa, Liquid; for viscosity: Capillary tube (Ostwald / Ubbelohde) method
[2] = xn = mol fraction of the nth substance listed; conditions: 101 kPa, Liquid, x2 = 0; for viscosity: Capillary tube (Ostwald / Ubbelohde) method

SMILES | mass density ([1]; 293.15 K) [kg/m3] | viscosity ([1]; 293.15 K) | mass density ([1]; 298.15 K) [kg/m3] | viscosity ([1]; 298.15 K) [mPa·s] | mass density ([1]; 303.15 K) [kg/m3] | viscosity ([1]; 303.15 K) [mPa·s] | mass density ([1]; 313.15 K) [kg/m3] | viscosity ([1]; 313.15 K) [mPa·s] | mass density ([1]; 323.15 K) [kg/m3] | viscosity ([1]; 323.15 K) [mPa·s] | mass density ([1]; 333.15 K) [kg/m3] | viscosity ([1]; 333.15 K) [mPa·s] | mass density ([1]; 343.15 K) [kg/m3] | viscosity ([1]; 343.15 K) [mPa·s] | viscosity ([2]; 298.15 K) [mPa·s] | mass density ([2]; 298.15 K) [kg/m3] | viscosity ([2]; 303.15 K) [mPa·s] | mass density ([2]; 303.15 K) [kg/m3] | viscosity ([2]; 313.15 K) [mPa·s] | mass density ([2]; 313.15 K) [kg/m3] | further results
CCOC(=O)OCC [diethyl carbonate] | 975 ± 1 | 0.801 ± 0.008 mPa·s and 0.8 ± 0.008 mPa·s | 968.97 ± 1.1 | 0.746 ± 0.008 | 962.39 ± 1.1 | 0.695 ± 0.008 | 952.32 ± 1.2 | 0.61 ± 0.007 | 939.78 ± 1.3 | 0.541 ± 0.007 | 928.69 ± 1.4 | 0.483 ± 0.007 | 916.33 ± 1.6 | 0.435 ± 0.007 | – | – | – | – | – | – | mass density ([1]; 353.15 K): 905.02 ± 1.7 kg/m3; viscosity ([1]; 353.15 K): 0.393 ± 0.007 mPa·s; mass density ([1]; 363.15 K): 893.71 ± 1.8 kg/m3; viscosity ([1]; 363.15 K): 0.358 ± 0.007 mPa·s
CO [methanol] | 791.54 ± 2.7 | 0.582 ± 0.007 mPa·s | 786.83 ± 2.8 | 0.55 ± 0.007 | 782.12 ± 2.8 | 0.512 ± 0.007 | 772.6 ± 2.9 | 0.448 ± 0.007 | 762.97 ± 3 | 0.395 ± 0.007 | 749.69 ± 3.1 | 0.351 ± 0.007 | – | – | – | – | – | – | – | – | –
CO [methanol] + CCOC(=O)OCC | – | – | – | – | – | – | – | – | – | – | – | – | – | – | 0.55 ± 0.007 | 786.83 ± 2.8 | 0.512 ± 0.007 | 782.12 ± 2.8 | 0.448 ± 0.007 | 772.6 ± 2.9 | viscosity ([2]; 293.15 K): 0.582 ± 0.007 mPa·s; mass density ([2]; 293.15 K): 791.54 ± 2.7 kg/m3; viscosity ([2]; 323.15 K): 0.395 ± 0.007 mPa·s; mass density ([2]; 323.15 K): 762.97 ± 3 kg/m3; viscosity ([2]; 333.15 K): 0.351 ± 0.007 mPa·s; mass density ([2]; 333.15 K): 749.69 ± 3.1 kg/m3
CC(C)O [propan-2-ol] | 785.28 ± 2.8 | 2.382 ± 0.016 mPa·s | 780.69 ± 2.8 | 2.069 ± 0.014 | 776.15 ± 2.9 | 1.743 ± 0.013 | 766.34 ± 3 | 1.288 ± 0.01 | 755.66 ± 3 | 1.002 ± 0.009 | 745.51 ± 3.1 | 0.789 ± 0.008 | 735.02 ± 3.2 | 0.626 ± 0.007 | – | – | – | – | – | – | –
CC(C)O [propan-2-ol] + CCOC(=O)OCC | – | – | – | – | – | – | – | – | – | – | – | – | – | – | 2.069 ± 0.014 | 780.69 ± 2.8 | 1.743 ± 0.013 | 776.15 ± 2.9 | 1.288 ± 0.01 | 766.34 ± 3 | viscosity ([2]; 293.15 K): 2.382 ± 0.016 mPa·s; mass density ([2]; 293.15 K): 785.28 ± 2.8 kg/m3; viscosity ([2]; 323.15 K): 1.002 ± 0.009 mPa·s; mass density ([2]; 323.15 K): 755.66 ± 3 kg/m3; viscosity ([2]; 333.15 K): 0.789 ± 0.008 mPa·s; mass density ([2]; 333.15 K): 745.51 ± 3.1 kg/m3; viscosity ([2]; 343.15 K): 0.626 ± 0.007 mPa·s; mass density ([2]; 343.15 K): 735.02 ± 3.2 kg/m3
Cc1ccccc1 [toluene] | – | – | 862.01 ± 2 | 0.554 ± 0.007 | 858.32 ± 2.1 | 0.525 ± 0.007 | 848.92 ± 2.2 | 0.47 ± 0.007 | 838.75 ± 2.3 | 0.423 ± 0.007 | 829.93 ± 2.3 | 0.385 ± 0.007 | 820.3 ± 2.4 | 0.35 ± 0.007 | – | – | – | – | – | – | mass density ([1]; 353.15 K): 810.54 ± 2.5 kg/m3; viscosity ([1]; 353.15 K): 0.31 ± 0.006 mPa·s; mass density ([1]; 363.15 K): 797.68 ± 2.6 kg/m3; viscosity ([1]; 363.15 K): 0.286 ± 0.006 mPa·s
Cc1ccccc1 [toluene] + CCOC(=O)OCC | – | – | – | – | – | – | – | – | – | – | – | – | – | – | 0.554 ± 0.007 | 862.01 ± 2 | 0.525 ± 0.007 | 858.32 ± 2.1 | 0.47 ± 0.007 | 848.92 ± 2.2 | viscosity ([2]; 323.15 K): 0.423 ± 0.007 mPa·s; mass density ([2]; 323.15 K): 838.75 ± 2.3 kg/m3; viscosity ([2]; 333.15 K): 0.385 ± 0.007 mPa·s; mass density ([2]; 333.15 K): 829.93 ± 2.3 kg/m3; viscosity ([2]; 343.15 K): 0.35 ± 0.007 mPa·s; mass density ([2]; 343.15 K): 820.3 ± 2.4 kg/m3; viscosity ([2]; 353.15 K): 0.31 ± 0.006 mPa·s; mass density ([2]; 353.15 K): 810.54 ± 2.5 kg/m3; viscosity ([2]; 363.15 K): 0.286 ± 0.006 mPa·s; mass density ([2]; 363.15 K): 797.68 ± 2.6 kg/m3
